Test results from ChEMBL document CHEMBL4418283, “Fluorinated lysyl oxidase-like 2 inhibitors and uses thereof” (2017).
Active and inactive are the calls of the source. The calls are words filed in the database; no cut-off is given here.

Experiments:
Mus musculus [1] = experiment: Antifibrotic activity in C57BL/6 mouse model of bleomycin-induced lung fibrosis assessed as reduction in cross linked collagen level in lung at 60 mg/kg, po pre-treated 1 hr to 1 day before bleomycin injection and measured after 14 to 28 days by Masson's trichrome staining based assay; type: functional, organism-based
Mus musculus [2] = experiment: Antifibrotic activity in C57BL/6 mouse model of bleomycin-induced lung fibrosis assessed as reduction in collagen level in lung at 60 mg/kg, po pre-treated 1 hr to 1 day before bleomycin injection and measured after 14 to 28 days by hydroxyproline assay; type: functional, organism-based
Mus musculus [3] = experiment: Antifibrotic activity in C57BL/6 mouse model of bleomycin-induced lung fibrosis assessed as reduction in hydroxyproline in lung homogenates at 60 mg/kg, po pre-treated 1 hr to 1 day before bleomycin injection and measured after 14 to 28 days by chloramine T and Erlich's solution based assay; type: functional, organism-based
Mus musculus [4] = experiment: Antifibrotic activity in C57BL/6 mouse model of bleomycin-induced lung fibrosis assessed as reduction in alpha smooth muscle actin level in lung at 60 mg/kg, po pre-treated 1 hr to 1 day before bleomycin injection and measured after 14 to 28 days by immunohistochemistry analysis; type: functional, organism-based
Mus musculus [5] = experiment: Antifibrotic activity in C57BL/6 mouse model of bleomycin-induced lung fibrosis assessed as reduction in cross linked collagen level in lung at 60 mg/kg, po pre-treated 1 hr to 1 day before bleomycin injection and measured after 14 to 28 days by Picro-Sirius staining based assay; type: functional, organism-based
Mus musculus [6] = experiment: Antifibrotic activity in C57BL/6 mouse model of bleomycin-induced lung fibrosis assessed as reduction in cross linked collagen level in lung at 60 mg/kg, po treated 7 to 14 days after bleomycin injection and measured after 14 to 28 days by Picro-Sirius staining based assay; type: functional, organism-based
Mus musculus [7] = experiment: Antifibrotic activity in C57BL/6 mouse model of bleomycin-induced lung fibrosis assessed as reduction in cross linked collagen level in lung at 60 mg/kg, po treated 7 to 14 days after bleomycin injection and measured after 14 to 28 days by Masson's trichrome staining based assay; type: functional, organism-based
Mus musculus [8] = experiment: Antifibrotic activity in C57BL/6 mouse model of bleomycin-induced lung fibrosis assessed as reduction in hydroxyproline in lung homogenates at 60 mg/kg, po treated 7 to 14 days after bleomycin injection and measured after 14 to 28 days by chloramine T and Erlich's solution based assay; type: functional, organism-based
Mus musculus [9] = experiment: Antifibrotic activity in C57BL/6 mouse model of bleomycin-induced lung fibrosis assessed as reduction in collagen level in lung at 60 mg/kg, po treated 7 to 14 days after bleomycin injection and measured after 14 to 28 days by hydroxyproline assay; type: functional, organism-based
Mus musculus [10] = experiment: Antifibrotic activity in C57BL/6 mouse model of bleomycin-induced lung fibrosis assessed as reduction in alpha smooth muscle actin level in lung at 60 mg/kg, po treated 7 to 14 days after bleomycin injection and measured after 14 to 28 days by immunohistochemistry analysis; type: functional, organism-based
Lysyl oxidase homolog 2 = target: T1, Lysyl oxidase homolog 2 (Homo sapiens, UniProt Q9Y4K0); experiment: Inhibition of human LOXL2 expressed in CHO cells assessed as reduction in amine oxidase activity incubated for 2 hrs by Amplex red based fluorescence assay; type: cell-based
T1 sequence (Q9Y4K0 whole entry): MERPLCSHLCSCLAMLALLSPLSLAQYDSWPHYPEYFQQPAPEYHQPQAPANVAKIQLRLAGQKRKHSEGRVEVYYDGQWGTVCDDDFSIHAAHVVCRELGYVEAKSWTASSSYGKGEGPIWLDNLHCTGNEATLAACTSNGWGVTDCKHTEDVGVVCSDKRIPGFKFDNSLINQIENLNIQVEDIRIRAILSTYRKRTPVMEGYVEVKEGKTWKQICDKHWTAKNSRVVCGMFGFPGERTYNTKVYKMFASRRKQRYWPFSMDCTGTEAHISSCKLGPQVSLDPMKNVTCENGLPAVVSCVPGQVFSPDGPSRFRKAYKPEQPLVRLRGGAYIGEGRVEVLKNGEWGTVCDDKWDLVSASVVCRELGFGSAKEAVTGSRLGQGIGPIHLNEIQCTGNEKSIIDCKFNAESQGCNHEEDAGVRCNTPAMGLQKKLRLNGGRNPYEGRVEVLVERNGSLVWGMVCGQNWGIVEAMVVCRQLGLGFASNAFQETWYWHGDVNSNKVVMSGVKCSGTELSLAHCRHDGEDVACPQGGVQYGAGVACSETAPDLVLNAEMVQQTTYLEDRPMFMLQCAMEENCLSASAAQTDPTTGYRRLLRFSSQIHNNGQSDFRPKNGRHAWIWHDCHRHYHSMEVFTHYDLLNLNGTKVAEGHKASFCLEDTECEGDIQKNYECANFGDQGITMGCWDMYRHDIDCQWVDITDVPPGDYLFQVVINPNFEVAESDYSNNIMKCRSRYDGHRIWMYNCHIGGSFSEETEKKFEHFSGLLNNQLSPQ

Mus musculus [11] = experiment: Antifibrotic activity in COL4A3 deficient mouse A1port model of kidney fibrosis assessed as effect on CD45 protein expression at 30 mg/kg, po dosed during 2 to 3 days of age and measured at 7 to 9 weeks of age by immunohistochemical analysis; type: functional, organism-based
Mus musculus [12] = experiment: Antifibrotic activity in COL4A3 deficient mouse A1port model of kidney fibrosis assessed as effect on MCP1 gene expression at 30 mg/kg, po dosed during 2 to 3 days of age and measured at 7 to 9 weeks of age by RT-PCR analysis; type: functional, organism-based
Mus musculus [13] = experiment: Antifibrotic activity in COL4A3 deficient mouse A1port model of kidney fibrosis assessed as effect on fibronectin protein expression at 30 mg/kg, po dosed during 2 to 3 days of age and measured at 7 to 9 weeks of age by immunohistochemical analysis; type: functional, organism-based
Mus musculus [14] = experiment: Antifibrotic activity in COL4A3 deficient mouse A1port model of kidney fibrosis assessed as effect on integrin alpha8 protein expression at 30 mg/kg, po dosed during 2 to 3 days of age and measured at 7 to 9 weeks of age by immunohistochemical analysis; type: functional, organism-based
Mus musculus [15] = experiment: Antifibrotic activity in COL4A3 deficient mouse A1port model of kidney fibrosis assessed as effect on WT1 protein expression at 30 mg/kg, po dosed during 2 to 3 days of age and measured at 7 to 9 weeks of age by immunohistochemical analysis; type: functional, organism-based
Mus musculus [16] = experiment: Antifibrotic activity in COL4A3 deficient mouse A1port model of kidney fibrosis assessed as effect on MMP12 gene expression at 30 mg/kg, po dosed during 2 to 3 days of age and measured at 7 to 9 weeks of age by RT-PCR analysis; type: functional, organism-based
Mus musculus [17] = experiment: Antifibrotic activity in COL4A3 deficient mouse A1port model of kidney fibrosis assessed as effect on albinuria level at 30 mg/kg, po dosed during 2 to 3 days of age and measured at 7 to 9 weeks of age; type: functional, organism-based
Mus musculus [18] = experiment: Antifibrotic activity in COL4A3 deficient mouse A1port model of kidney fibrosis assessed as effect on CTGF gene expression at 30 mg/kg, po dosed during 2 to 3 days of age and measured at 7 to 9 weeks of age by RT-PCR analysis; type: functional, organism-based
Mus musculus [19] = experiment: Antifibrotic activity in COL4A3 deficient mouse A1port model of kidney fibrosis assessed as effect on smooth muscle actin protein expression at 30 mg/kg, po dosed during 2 to 3 days of age and measured at 7 to 9 weeks of age by immunohistochemical analysis; type: functional, organism-based
Mus musculus [20] = experiment: Antifibrotic activity in COL4A3 deficient mouse A1port model of kidney fibrosis assessed as effect on collagen-1 protein expression at 30 mg/kg, po dosed during 2 to 3 days of age and measured at 7 to 9 weeks of age by immunohistochemical analysis; type: functional, organism-based
Mus musculus [21] = experiment: Antifibrotic activity in COL4A3 deficient mouse A1port model of kidney fibrosis assessed as effect on laminin a5 protein expression at 30 mg/kg, po dosed during 2 to 3 days of age and measured at 7 to 9 weeks of age by immunohistochemical analysis; type: functional, organism-based
Mus musculus [22] = experiment: Antifibrotic activity in COL4A3 deficient mouse A1port model of kidney fibrosis assessed as effect on MMP10 gene expression at 30 mg/kg, po dosed during 2 to 3 days of age and measured at 7 to 9 weeks of age by RT-PCR analysis; type: functional, organism-based
Mus musculus [23] = experiment: Antifibrotic activity in COL4A3 deficient mouse A1port model of kidney fibrosis assessed as effect on collagen 1 protein expression at 30 mg/kg, po dosed during 2 to 3 days of age and measured at 7 to 9 weeks of age by immunohistochemical analysis; type: functional, organism-based
Mus musculus [24] = experiment: Antifibrotic activity in COL4A3 deficient mouse A1port model of kidney fibrosis assessed as effect on MMP2 gene expression at 30 mg/kg, po dosed during 2 to 3 days of age and measured at 7 to 9 weeks of age by RT-PCR analysis; type: functional, organism-based
Mus musculus [25] = experiment: Antifibrotic activity in COL4A3 deficient mouse A1port model of kidney fibrosis assessed as effect on BUN level at 30 mg/kg, po dosed during 2 to 3 days of age and measured at 7 to 9 weeks of age; type: functional, organism-based
Mus musculus [26] = experiment: Antifibrotic activity in COL4A3 deficient mouse A1port model of kidney fibrosis assessed as effect on IL6 gene expression at 30 mg/kg, po dosed during 2 to 3 days of age and measured at 7 to 9 weeks of age by RT-PCR analysis; type: functional, organism-based
Mus musculus [27] = experiment: Antifibrotic activity in COL4A3 deficient mouse A1port model of kidney fibrosis assessed as effect on MMP9 gene expression at 30 mg/kg, po dosed during 2 to 3 days of age and measured at 7 to 9 weeks of age by RT-PCR analysis; type: functional, organism-based
Mus musculus [28] = experiment: Antifibrotic activity in COL4A3 deficient mouse A1port model of kidney fibrosis assessed as effect on TGFbeta1 gene expression at 30 mg/kg, po dosed during 2 to 3 days of age and measured at 7 to 9 weeks of age by RT-PCR analysis; type: functional, organism-based

Row | SMILES | Activity (Mus musculus [1]) | Activity (Mus musculus [2]) | Activity (Mus musculus [3]) | Activity (Mus musculus [4]) | Activity (Mus musculus [5]) | Activity (Mus musculus [6]) | Activity (Mus musculus [7]) | Activity (Mus musculus [8]) | Activity (Mus musculus [9]) | Activity (Mus musculus [10]) | also measured
1 | NCc1cc(Oc2cccc3c2CCC(=O)N3)nc(C(F)(F)F)c1 | Active | Active | Active | Active | Active | – | – | – | – | – | –
2 | NCc1cc(Oc2cccc(C(=O)NCCn3cnnn3)c2)nc(C(F)(F)F)c1 | Active | Active | Active | Active | Active | – | – | – | – | – | –
3 | NCc1cc(Oc2cccc(C(=O)N3C[C@H](O)[C@@H](F)C3)c2)nc(C(F)(F)F)c1 (racemic) | Active | Active | Active | Active | Active | Active | Active | Active | Active | Active | –
4 | NCc1cc(Oc2cccc(C(=O)Nc3ccccc3)c2)nc(C(F)(F)F)c1 | Active | Active | Active | Active | Active | – | – | – | – | – | –
5 | CC(C)(C)OC(=O)N1CCN(C(=O)Cn2ccc3c(Oc4cc(CN)cc(C(F)(F)F)n4)cccc32)CC1 | – | – | – | – | – | – | – | – | – | – | IC50 (Lysyl oxidase homolog 2): < 300 nM
6 | NCc1cc(Oc2cccc(C(=O)N3C[C@H](O)[C@@H](F)C3)c2)nc(C(F)(F)F)c1 (relative stereo) | Active | Active | Active | Active | Active | Active | Active | Active | Active | Active | –
7 | NCc1cc(O[C@@H]2CCCN(C(=O)Nc3ccccc3)C2)nc(C(F)(F)F)c1 | – | – | – | – | – | – | – | – | – | – | IC50 (Lysyl oxidase homolog 2): 300 to 1000 nM
8 | NCc1cc(Oc2cccc(C(=O)N3C[C@@H](O)[C@H](F)C3)c2)nc(C(F)(F)F)c1 | Active | Active | Active | Active | Active | Active | Active | Active | Active | Active | Activity (Mus musculus [11]): Active; Activity (Mus musculus [12]): Active; Activity (Mus musculus [13]): Active; Activity (Mus musculus [14]): Active; Activity (Mus musculus [15]): Active; Activity (Mus musculus [16]): Active; Activity (Mus musculus [17]): Active; Activity (Mus musculus [18]): Active; Activity (Mus musculus [19]): Active; Activity (Mus musculus [20]): Active; Activity (Mus musculus [21]): Active; Activity (Mus musculus [22]): Active; Activity (Mus musculus [23]): Active; Activity (Mus musculus [24]): Active; Activity (Mus musculus [25]): Active; Activity (Mus musculus [26]): Active; Activity (Mus musculus [27]): Active; Activity (Mus musculus [28]): Active
9 | CS(=O)(=O)CCNC(=O)c1cccc(Oc2cc(CN)cc(C(F)(F)F)n2)c1 | Active | Active | Active | Active | Active | – | – | – | – | – | –
